From patent publication US5321037A, “Isoxazole derivatives for use as cerebro-active drugs and central muscle relaxants” (Sankyo Company, Limited, priority 1986, dated 1994)
Like-named read-outs stand apart in the source and are kept apart here.

Tests used:
[1] = test system: decerebrate rigidity in rats; assay: Suppression of decerebrate rigidity in rats; assay type: in vivo, rat
Source text: The suppression of decerebrate rigidity in laboratory animals, such as rats, is a well known model for control of human spasticity and/or rigidity.
In the test method, a rat was anesthetized with halothane and fixed on a stereotaxic apparatus (SR-5, Narishige). In accordance with the brain atlas by Pellegrino et al., [L. J. Pellegrino, A. S. Pellegrino & A. J. Cushman: A Stereotaxic Atlas of the Rat Brain, Plenum Press, New York and London (1967)], an electrode 0.7 mm in diameter, which was insulated except for 1 mm at the tip, was inserted bilaterally into the midbrain reticular formation (AP: 0, L: ±1.5, H: -3.0). A clip serving as the reference electrode was fixed on the temporal muscle. Through these electrodes, a high frequency electric current (100 KHz, 10 to 20 mA) was applied from a lesion generator (Glass Co., LM4A) for 2 to 3 minutes to cauterize electrically this brain region.
The rat was then immediately set free from the stereotaxic apparatus. A polyethylene cannula was inserted into the duodenum and fixed with an acrylic resin (Aron Alfa, Sankyo Co., Ltd.). After completion of these operations, halothane anesthesia was immediately discontinued.
After 1.5 hours, when the animal awoke from the anesthesia, the rat was fixed on an apparatus devised in our laboratory for a hind leg fixation. Both hind legs were fixed at the anterior part of the ankle joints. Both hindlimb paws were then pushed in 4 mm for 6 seconds in every minute. The resulting repulsive tension was drawn on a polygraph through a strain gauge.
The test compounds were suspended in a 0.5% w/v CMC (carboxymethyl cellulose) aqueous solution and were administered orally (p.o.) or intraperitoneally (i.p.).
The results are summarized in the following Table 7, where the compounds of the present invention are identified by the number of the foregoing Example in which each was prepared, Compound X is the known compound eperisone hydrochloride, and Compound Y is the known compound afloqualone.

[2] = test system: spinal reflex in cats; assay: Effect on spinal reflex in cats; assay type: in vivo, cat
Procedure: Adult cats weighing 3.0 to 4.5 kg each were used. After induction of anesthesia with ether, the animal was anesthetized by intravenous injection of 50 mg/kg of a-chloralose. After the trachea was cannulated, the animal was fixed on a stereotaxic apparatus, and the lumbosacral spinal cord was exposed by laminectomy from L3 to S1. The ventral roots of the right side were cut from L6 to S1 as distal as possible and the cut ends were ligated with cotton thread previously immersed in Ringer's solution. The exposed spinal cord was covered with warmed mineral oil and maintained at 37° C. The ventral root, either L7 or S1, was fixed on a pair of platinum wire electrodes. A pair of collar-type electrodes was implanted on the ipsilateral tibial nerve and the saphenous nerve, for stimulation. After completion of all these operations, the cat was immobilized with pancronium bromide (0.5 mg/kg, i.v.) and maintained by artificial respiration (40/minute). Recording was started at least 2 hours after withdrawal of ether anesthesia. A single square pulse (0.01 to 0.1 msecond pulse width, supramaximal intensity) was applied to the nerve at a frequency of 0.3 Hz from an electronic stimulator. […] In a similar manner to Experiment 2, the blood pressure, heart beat and body temperature of the animal were recorded and monitored. Compounds to be tested were also administered in a similar manner.

[3] = test system: decerebrate rigidity in rats; assay: Suppression of decerebrate rigidity in rats; assay type: in vivo, rat; remark: listed apart in the source
[4] = test system: thiopental anesthesia; assay: Potentiation of thiopental anesthesia (mice); assay type: in vivo, mouse (ddY strain); conditions: for Anesthesia time: thiopental 30 mg/kg after one hour
Procedure: In the test method, male adult mice of ddY strain each weighing 20 to 30 g were used as divided groups each made up of 5 to 7 mice. Test compounds suspended in 0.5% CMC solution were orally administered. After one hour, thiopental (30 mg/kg) was injected into the tail vein, and the time required for the mouse to recover the righting reflex was measured.

[5] = test system: decerebrate rigidity (cats); assay: Suppression of decerebrate rigidity (cats); assay type: in vivo, cat
Source text: Adult cats each weight 3.0 to 4.5 kg were used. Under ether anesthesia, the trachea was cannulated and the common carotid arteries were ligated at both sides. The cat was decerebrated by suction at the precollicular level. Ether anesthesia was then immediately discontinued. A pair of needle electrodes was inserted into the neck muscle in order to pick up any EMG muscular discharges. The EMG discharge was amplified and recorded on a pen-writing recorder, along with an integration of the EMG discharge. Recording was started at least 2 hours after withdrawal of anesthesia. Blood pressure induced from the femoral artery, as well as body temperature and heart beat, were recorded and monitored throughout the experiment.
After stable EMG discharges were obtained, the test compounds suspended in 0.5% CMC solution were administered into the duodenum through a previously inserted cannula. The effect of the test compound was expressed as the ratio of the integrated EMG discharge after administration relative to the value before administration.

[6] = 100 mg/kg, administered as in Experiment 2
[7] = 100 mg/kg, after administration

## O=c1cc(-c2ccccc2)on1CC(O)CN1CCOCC1 (stereo not drawn) [Compound 1a]
[1]; 10 mg/kg i.d.
  Onset of the effect: 10 min
[1]; 30 mg/kg i.d.
  Duration of the effect: > 180 min
  Onset of the effect: 5 min
[1]; 30 mg/kg i.p.
  Duration of the effect: > 120 min
  Onset of the effect: 5 min
[1]; 30 mg/kg p.o.
  Duration of the effect: > 160 min
  Onset of the effect: 10 min
[1]; Rattus norvegicus, intraduodenal, 10 mg/kg i.d., read-out: Maximum inhibition
  inhibition in vivo at 10 mg/kg: 20%
[1]; Rattus norvegicus, ip, 30 mg/kg i.p., read-out: Maximum inhibition
  inhibition in vivo at 30 mg/kg: 60%
[1]; Rattus norvegicus, po, 30 mg/kg p.o., read-out: Maximum inhibition
  inhibition in vivo at 30 mg/kg: 95%
[2]; 100 mg/kg
  Duration of the effect on spinal reflexes: about 2 hours
[2]; [6]
  Monosynaptic reflex: little affected
  Polysynaptic reflex: remarkably inhibited
  Spino-bulbo-spinal reflex: remarkably inhibited
[2]; [7]
  Onset of the effect on spinal reflexes: 5 min
  Time of maximum effect on spinal reflexes: 30 min
[2]; in vivo
  Mechanism shown by spinal reflexes: interneuron blockers
[3]; 10 mg/kg i.d.
  Duration of the effect: > 90 min
[3]; Rattus norvegicus, intraduodenal, 30 mg/kg i.d., read-out: Maximum inhibition
  inhibition in vivo at 30 mg/kg: 60%
[4]; 50 mg/kg p.o.
  Anesthesia time: 288.5 ± 20.1 s
[4]; 100 mg/kg p.o.
  Anesthesia time: 237.3 ± 25.5 s
[4]; compared with afloqualone
  Drowsiness (the adverse effect), implied: induce drowsiness (the adverse effect) less than afloqualone
[4]; in comparison with eperisone hydrochloride
  Prolongation of the duration of thiopental-induced anesthesia, in words: did not significantly prolong the duration of thiopental-induced anesthesia
[5]; 100 mg/kg intraduodenal, 5 minutes after administration
  Inhibition of decerebrate rigidity: About 30%
[5]; 100 mg/kg intraduodenal, 1 hour after administration
  Inhibition of decerebrate rigidity: about 65%
[5]; 100 mg/kg intraduodenal, throughout the observation period
  Duration of inhibitory effects: ≥ 2 h
[5]; compared with eperisone hydrochloride
  Side effects and duration of action compared with eperisone hydrochloride: weaker in side effects and of longer action than eperisone hydrochloride
